Assay results from PubChem BioAssay AID602341 (The Scripps Research Institute Molecular Screening Center, 2012).
Calls of active or inactive are those of the source. No rule for the calls is given here.

What was measured:
Experiment in all cases: serine hydrolase selectivity, ABHD6 analysis, late-stage follow-up, selectivity assay for DAGLb inhibitor project, ABPP-SILAC, LC-MS, mouse cells (AID 602341)
Ppt2 = conditions: serine hydrolases, active compounds read low
Kiaa1363 = conditions: serine hydrolases, active compounds read low
Lyplal1 = conditions: serine hydrolases, active compounds read low
Abhd12 = conditions: serine hydrolases, active compounds read low
Pla2g6 = conditions: serine hydrolases, active compounds read low
Lypla3 = conditions: serine hydrolases, active compounds read low
Lactb = conditions: serine hydrolases, active compounds read low
Pafah1b2 = conditions: serine hydrolases, active compounds read low
Ache = conditions: serine hydrolases, active compounds read low
Abhd11 = conditions: serine hydrolases, active compounds read low
Esd = conditions: serine hydrolases, active compounds read low
Bat5 = conditions: serine hydrolases, active compounds read low
Prepl = conditions: serine hydrolases, active compounds read low
Dpp8 = conditions: serine hydrolases, active compounds read low
Htra2 = conditions: serine hydrolases, active compounds read low
[1] = biological target: Monoacylglycerol lipase ABHD6 (Mus musculus) (UniProt Q8R2Y0); conditions: serine hydrolases, active compounds read low
Sequence of Monoacylglycerol lipase ABHD6 (Mus musculus) (Q8R2Y0 whole entry, looked up): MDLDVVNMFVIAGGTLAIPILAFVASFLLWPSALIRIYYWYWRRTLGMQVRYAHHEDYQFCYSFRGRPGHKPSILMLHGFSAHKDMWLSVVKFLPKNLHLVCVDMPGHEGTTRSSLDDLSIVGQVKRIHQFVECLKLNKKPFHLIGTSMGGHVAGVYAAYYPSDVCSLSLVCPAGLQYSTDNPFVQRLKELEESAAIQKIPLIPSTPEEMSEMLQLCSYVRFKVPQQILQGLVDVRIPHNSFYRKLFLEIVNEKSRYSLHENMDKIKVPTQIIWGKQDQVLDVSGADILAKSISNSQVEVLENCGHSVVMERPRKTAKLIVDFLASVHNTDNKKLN

Pnpla8 = conditions: serine hydrolases, active compounds read low
Lonp1 = conditions: serine hydrolases, active compounds read low
Rbbp9 = conditions: serine hydrolases, active compounds read low
Fasn = conditions: serine hydrolases, active compounds read low
Lypla2 = conditions: serine hydrolases, active compounds read low
Apeh = conditions: serine hydrolases, active compounds read low
Pnpla6 = conditions: serine hydrolases, active compounds read low
Qrsl1 = conditions: serine hydrolases, active compounds read low
Fam108c = conditions: serine hydrolases, active compounds read low
[2] = biological target: Prolyl endopeptidase (Mus musculus) (UniProt Q9QUR6); conditions: serine hydrolases, Prep, active compounds read low
Sequence of Prolyl endopeptidase (Mus musculus) (Q9QUR6 whole entry, looked up): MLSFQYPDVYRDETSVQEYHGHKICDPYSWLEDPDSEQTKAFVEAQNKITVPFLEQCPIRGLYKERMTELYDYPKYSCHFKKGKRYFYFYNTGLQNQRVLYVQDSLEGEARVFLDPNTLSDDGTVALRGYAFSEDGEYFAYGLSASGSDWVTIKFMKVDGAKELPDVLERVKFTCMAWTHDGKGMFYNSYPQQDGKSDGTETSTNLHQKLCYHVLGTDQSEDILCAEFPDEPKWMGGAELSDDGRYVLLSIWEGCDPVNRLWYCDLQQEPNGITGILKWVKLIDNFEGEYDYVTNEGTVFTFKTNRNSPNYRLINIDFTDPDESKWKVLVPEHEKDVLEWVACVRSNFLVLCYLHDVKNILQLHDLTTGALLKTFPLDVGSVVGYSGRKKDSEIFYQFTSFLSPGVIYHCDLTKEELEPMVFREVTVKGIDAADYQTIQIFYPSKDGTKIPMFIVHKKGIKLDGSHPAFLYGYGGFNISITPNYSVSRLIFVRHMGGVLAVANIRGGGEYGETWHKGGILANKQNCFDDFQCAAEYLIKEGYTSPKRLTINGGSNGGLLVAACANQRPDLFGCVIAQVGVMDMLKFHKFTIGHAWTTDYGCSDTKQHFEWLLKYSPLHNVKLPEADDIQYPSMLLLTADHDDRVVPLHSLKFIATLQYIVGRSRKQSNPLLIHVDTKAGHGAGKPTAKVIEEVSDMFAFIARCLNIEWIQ

Prcp = conditions: serine hydrolases, active compounds read low
Pnpla7 = conditions: serine hydrolases, active compounds read low
Iah1 = conditions: serine hydrolases, active compounds read low
Dpp9 = conditions: serine hydrolases, active compounds read low
Acot2 = conditions: serine hydrolases, active compounds read low
Dpp7 = conditions: serine hydrolases, active compounds read low
Lipe = conditions: serine hydrolases, active compounds read low
Tpp2 = conditions: serine hydrolases, active compounds read low
Pme1 = conditions: serine hydrolases, active compounds read low
[3] = biological target: Platelet-activating factor acetylhydrolase 2, cytoplasmic (Mus musculus) (UniProt Q8VDG7); conditions: serine hydrolases, Pafah2, active compounds read low
Sequence of Platelet-activating factor acetylhydrolase 2, cytoplasmic (Mus musculus) (Q8VDG7 whole entry, looked up): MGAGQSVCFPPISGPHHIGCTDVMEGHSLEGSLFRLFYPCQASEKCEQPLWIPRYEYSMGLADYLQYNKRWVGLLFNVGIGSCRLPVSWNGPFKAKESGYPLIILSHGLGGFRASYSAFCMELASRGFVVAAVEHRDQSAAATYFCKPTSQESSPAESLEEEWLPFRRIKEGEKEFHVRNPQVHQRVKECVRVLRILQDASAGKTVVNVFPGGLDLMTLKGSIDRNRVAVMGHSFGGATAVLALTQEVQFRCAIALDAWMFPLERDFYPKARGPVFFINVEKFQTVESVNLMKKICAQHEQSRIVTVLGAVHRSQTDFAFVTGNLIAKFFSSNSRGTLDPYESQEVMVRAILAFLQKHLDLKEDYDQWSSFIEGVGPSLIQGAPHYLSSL

Pafah1b3 = conditions: serine hydrolases, active compounds read low
Fam108a = conditions: serine hydrolases, active compounds read low
[4] = biological target: Palmitoyl-protein thioesterase ABHD10, mitochondrial (Mus musculus) (UniProt Q6PE15); conditions: serine hydrolases, active compounds read low
Sequence of Palmitoyl-protein thioesterase ABHD10, mitochondrial (Mus musculus) (Q6PE15 whole entry, looked up): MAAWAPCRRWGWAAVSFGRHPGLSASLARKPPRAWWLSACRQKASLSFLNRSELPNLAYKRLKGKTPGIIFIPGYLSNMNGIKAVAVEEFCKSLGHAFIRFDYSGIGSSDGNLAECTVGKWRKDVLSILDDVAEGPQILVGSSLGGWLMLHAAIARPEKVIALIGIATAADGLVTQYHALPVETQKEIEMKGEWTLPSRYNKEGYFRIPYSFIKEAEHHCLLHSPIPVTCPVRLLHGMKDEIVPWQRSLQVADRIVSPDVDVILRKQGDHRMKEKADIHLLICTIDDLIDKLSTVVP

[5] = biological target: Diacylglycerol lipase-beta (Mus musculus) (UniProt Q91WC9); conditions: serine hydrolases, Daglb, active compounds read low
Sequence of Diacylglycerol lipase-beta (Mus musculus) (Q91WC9 whole entry, looked up): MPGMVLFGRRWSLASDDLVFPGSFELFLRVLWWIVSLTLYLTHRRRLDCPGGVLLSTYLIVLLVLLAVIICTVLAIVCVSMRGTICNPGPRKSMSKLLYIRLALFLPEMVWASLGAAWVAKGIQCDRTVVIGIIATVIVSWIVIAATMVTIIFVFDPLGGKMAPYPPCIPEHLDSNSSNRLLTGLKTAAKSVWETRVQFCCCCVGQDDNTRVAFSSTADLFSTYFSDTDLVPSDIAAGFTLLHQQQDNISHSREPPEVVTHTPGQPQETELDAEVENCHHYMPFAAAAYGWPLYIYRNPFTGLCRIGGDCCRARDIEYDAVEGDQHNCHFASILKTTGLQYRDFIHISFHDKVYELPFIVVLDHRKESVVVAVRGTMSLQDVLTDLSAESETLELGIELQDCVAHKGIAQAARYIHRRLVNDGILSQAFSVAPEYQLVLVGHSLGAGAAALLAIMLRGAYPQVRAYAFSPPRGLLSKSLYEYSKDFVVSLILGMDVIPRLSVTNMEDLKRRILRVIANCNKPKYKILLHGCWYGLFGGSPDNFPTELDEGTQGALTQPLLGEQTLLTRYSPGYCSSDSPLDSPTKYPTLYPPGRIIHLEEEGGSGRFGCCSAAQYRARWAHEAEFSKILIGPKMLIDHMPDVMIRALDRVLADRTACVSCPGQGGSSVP

Ctsa = conditions: serine hydrolases, active compounds read low
D230012E17Rik = conditions: serine hydrolases, active compounds read low
Faah = conditions: serine hydrolases, active compounds read low
Serhl = conditions: serine hydrolases, active compounds read low
Parl = conditions: serine hydrolases, active compounds read low
[6] = biological target: Acyl-protein thioesterase 1 (Mus musculus) (UniProt P97823); conditions: serine hydrolases, Lypla1, active compounds read low
Sequence of Acyl-protein thioesterase 1 (Mus musculus) (P97823 whole entry, looked up): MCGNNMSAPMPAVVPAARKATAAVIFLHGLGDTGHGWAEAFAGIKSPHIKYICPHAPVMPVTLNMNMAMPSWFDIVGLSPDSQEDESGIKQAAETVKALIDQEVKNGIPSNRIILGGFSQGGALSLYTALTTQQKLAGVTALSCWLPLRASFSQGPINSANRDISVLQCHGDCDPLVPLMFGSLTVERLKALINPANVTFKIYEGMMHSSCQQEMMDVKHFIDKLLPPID

Fam108b = conditions: serine hydrolases, active compounds read low

COc1ccc(-c2ccc(-c3cn(C(=O)N4CCCCC4c4ccccc4)nn3)cc2)cc1 (configuration not stated)
SILAC ratio (inhibitor/DMSO) (Ppt2): 1.17 (inactive)
SILAC ratio (inhibitor/DMSO) (Kiaa1363): 1.39 (inactive)
SILAC ratio (inhibitor/DMSO) (Lyplal1): 1.61 (inactive)
SILAC ratio (inhibitor/DMSO) (Abhd12): 1.3 (inactive)
SILAC ratio (inhibitor/DMSO) (Pla2g6): 1.47 (inactive)
SILAC ratio (inhibitor/DMSO) (Lypla3): 1.1 (inactive)
SILAC ratio (inhibitor/DMSO) (Lactb): 1.05 (inactive)
SILAC ratio (inhibitor/DMSO) (Pafah1b2): 1.19 (inactive)
SILAC ratio (inhibitor/DMSO) (Ache): 1.23 (inactive)
SILAC ratio (inhibitor/DMSO) (Abhd11): 1.5 (inactive)
SILAC ratio (inhibitor/DMSO) (Esd): 1.34 (inactive)
SILAC ratio (inhibitor/DMSO) (Bat5): 1.27 (inactive)
SILAC ratio (inhibitor/DMSO) (Prepl): 1 (inactive)
SILAC ratio (inhibitor/DMSO) (Dpp8): 1.17 (inactive)
SILAC ratio (inhibitor/DMSO) (Htra2): 1.29 (inactive)
SILAC ratio (inhibitor/DMSO) [1]: 0.05
SILAC ratio (inhibitor/DMSO) (Pnpla8): 1.33 (inactive)
SILAC ratio (inhibitor/DMSO) (Lonp1): 1.73 (inactive)
SILAC ratio (inhibitor/DMSO) (Rbbp9): 1.4 (inactive)
SILAC ratio (inhibitor/DMSO) (Fasn): 1.19 (inactive)
SILAC ratio (inhibitor/DMSO) (Lypla2): 1.13 (inactive)
SILAC ratio (inhibitor/DMSO) (Apeh): 1.13 (inactive)
SILAC ratio (inhibitor/DMSO) (Pnpla6): 1.4 (inactive)
SILAC ratio (inhibitor/DMSO) (Qrsl1): 1.47 (inactive)
SILAC ratio (inhibitor/DMSO) (Fam108c): 1.13 (inactive)
SILAC ratio (inhibitor/DMSO) [2]: 1.07 (inactive)
SILAC ratio (inhibitor/DMSO) (Prcp): 0.86 (inactive)
SILAC ratio (inhibitor/DMSO) (Pnpla7): 1.65 (inactive)
SILAC ratio (inhibitor/DMSO) (Iah1): 1.15 (inactive)
SILAC ratio (inhibitor/DMSO) (Dpp9): 1.06 (inactive)
SILAC ratio (inhibitor/DMSO) (Acot2): 1.47 (inactive)
SILAC ratio (inhibitor/DMSO) (Dpp7): 1.29 (inactive)
SILAC ratio (inhibitor/DMSO) (Lipe): 1.21 (inactive)
SILAC ratio (inhibitor/DMSO) (Tpp2): 1.43 (inactive)
SILAC ratio (inhibitor/DMSO) (Pme1): 1.29 (inactive)
SILAC ratio (inhibitor/DMSO) [3]: 1.1 (inactive)
SILAC ratio (inhibitor/DMSO) (Pafah1b3): 1.15 (inactive)
SILAC ratio (inhibitor/DMSO) (Fam108a): 1.33 (inactive)
SILAC ratio (inhibitor/DMSO) [4]: 1.17 (inactive)
SILAC ratio (inhibitor/DMSO) [5]: 1.05 (inactive)
SILAC ratio (inhibitor/DMSO) (Ctsa): 1.46 (inactive)
SILAC ratio (inhibitor/DMSO) (D230012E17Rik): 1.13 (inactive)
SILAC ratio (inhibitor/DMSO) (Faah): 0.95 (inactive)
SILAC ratio (inhibitor/DMSO) (Serhl): 1.2 (inactive)
SILAC ratio (inhibitor/DMSO) (Parl): 1.4 (inactive)
SILAC ratio (inhibitor/DMSO) [6]: 1.05 (inactive)
SILAC ratio (inhibitor/DMSO) (Fam108b): 1.15 (inactive)
